The values that follow come from publication PMC9413219 (Journal of Agricultural and Food Chemistry, 2022).

Structures are written as SMILES.

The subject of the data set is rumen inoculum from fistulated cows. The experiment in a line: In vitro batch culture incubation of a Senecio PA mixture with rumen inoculum. To be noted: incubation with rumen inoculum up to 20 h. Format: in vitro ADME.
On to `C/C=C1/C[C@@]2(CO)O[C@@]2(C)C(=O)OCC2=CCN3CC[C@@H](OC1=O)[C@@H]23` [erucifoline], for which the “degradation rate in rumen incubation (half-life ranking)” value is “ranged in the middle”. Consider `C/C=C1/C[C@@H](C)[C@@](C)(O)C(=O)OCC2=CCN3CC[C@@H](OC1=O)[C@@H]23` [senecionine], for which the “degradation rate in rumen incubation (half-life ranking)” value is recorded as “fastest degradation”. The entry for `C=C1C/C(=C/C)C(=O)O[C@@H]2CCN3CC=C(COC(=O)[C@]1(C)O)[C@H]23` [seneciphylline] is “fastest degradation”; for `C/C=C1/C[C@@H](C)[C@@](C)(O)C(=O)OC/C2=C/CN(C)CC[C@@H](OC1=O)C2=O` [senkirkine] it is “slower degradation rates”.
